Data on 14 compounds can be found in PubChem BioAssay (NCI).

What all share (assay): NCI anticancer screen, dose series, 48 h
In assay [1] the test system is NCI-H226 lung.
The subject of assay [2] is MCF7 breast.
Assay [3] has as its system HT29 colon.
Assay [4] concerns A498 renal.
Assay [5] deals with MDA-MB-231 breast.
Assay [6] concerns UACC-62 melanoma.
Assay [7] concerns SK-MEL-5 melanoma.
Assay [8] relates to OVCAR-3 ovarian.
The test system of assay [9] is MDA-N.
Assay [10] has as its system MALME-3M melanoma.

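Grown in 96-well plates, cells were treated for 48 hours with each compound at five concentrations. Insufficient inhibition: endpoint recorded as highest concentration tested. TGI is the concentration that stops growth completely.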

Turning to `CCOC(=O)C1=CN(C(=O)c2ccccc2)CCC1Cc1ccccc1` (stereo not drawn), the TGI in assay [1] is greater than 100 µM; in assay [2], 64 µM; in [3], 35.1 µM; in [4], 39.4 µM; in [5], 64.9 µM; in assay [6], 31.4 µM. The TGI in [7] is 28.3 µM; in [8], greater than 100 µM; in [9], 44.4 µM; in assay [10], 68 µM.
With `CN(/N=C/c1ccc(Cl)c(Cl)c1)C1=NCCN1`, the TGI in assay [1] was 72 µM; in [2], 49.8 µM; in assay [3] it was greater than 100 µM; in [4], 28.1 µM; in assay [5], 77.2 µM; in [6] it was 35.4 µM. Besides, the TGI is 30.7 µM in assay [7], greater than 100 µM in assay [8], 31.9 µM in assay [9] and 36.9 µM in assay [10].
`CCOC(=O)CCC(NC(=O)c1ccc(NCc2ccc3nc(-c4ccccc4)c(Cl)nc3c2)c2ccccc12)C(=O)OCC` (stereo not drawn): the TGI in [1], in assay [2], in assay [3], in assay [4], in assay [5] and in [6] was greater than 100 µM throughout. The TGI in assay [7], in assay [8], in [9] and in [10] was greater than 100 µM throughout.
On to `O=C1/C(=C2\SCC(=O)N2c2ccccc2)SC(=S)N1c1ccccc1`, for which the TGI was 48.4 µM in assay [1]; greater than 100 µM in assay [2]; greater than 100 µM in assay [3]; greater than 100 µM in [4]; 45.2 µM in [5]; greater than 100 µM in assay [6]. Besides, the TGI in assay [7] was greater than 100 µM; in assay [8] it was 83.2 µM; in assay [9], greater than 100 µM; in [10], greater than 100 µM.
For the compound `Cc1nc2sccn2c1C(=O)OCCOCCOCCOCCOC(=O)c1c(C)nc2sccn12`, the TGI in assay [1], in assay [2], in assay [3], in assay [4], in assay [5] and in [6] was greater than 100 µM in each case. For the same compound, the TGI is 35.5 µM in assay [7], greater than 100 µM in [8], greater than 100 µM in assay [9] and greater than 100 µM in assay [10].
As to `OC1(c2ccc(Cl)cc2)c2ccccc2C2=NCc3ccccc3CN21` (stereo not drawn), the TGI in assay [1] was found to be 20.8 µM; in assay [2], 17.9 µM; in [3], 27.8 µM; in assay [4], 30.2 µM; in assay [5], 37.9 µM; in [6], 26.7 µM. For the same compound, the TGI in [7] was determined as 33.6 µM; in [8], 6.33 µM; in [9] it was 26.5 µM; in [10], 27.1 µM.
Take `CC12CCC(C1)C(C)(C)C2OC(=O)c1ccccc1C(=O)O` (stereo not drawn): the TGI in assay [1], in [2], in [3], in assay [4], in assay [5] and in assay [6] was greater than 100 µM in each case. Besides, the TGI in assay [7], in assay [9] and in assay [10] was greater than 100 µM each time.
`O=C(NNCc1ccccc1O)c1ccccc1O`: the TGI was greater than 100 µM in assay [1]; 80.3 µM in [2]; greater than 100 µM in assay [3]; greater than 100 µM in assay [4]; greater than 100 µM in [5]; 55.9 µM in assay [6]. The TGI in assay [7] is 25.8 µM; in [8], 6.29 µM; in assay [9], greater than 100 µM; in assay [10], greater than 100 µM.
On to `CSc1nc(=O)c(C#N)c(-c2ccccc2)n1C1OC(COC(C)=O)C(OC(C)=O)C(OC(C)=O)C1OC(C)=O` (stereo not drawn), for which the TGI in assay [1], in [2], in assay [3], in assay [4], in assay [5] and in [6] was greater than 100 µM throughout. The TGI in assay [7], in assay [8], in assay [9] and in assay [10] was greater than 100 µM in each case.
As for `C=CCc1cccc2cc(C(=O)Nc3nc(C45CC6CC(CC(C6)C4)C5)cs3)c(=O)oc12`, the TGI in assay [1] is greater than 100 µM; in [2], greater than 100 µM; in assay [3], greater than 100 µM; in assay [4], 70.6 µM; in assay [5] it was 62.1 µM; in assay [7] it was greater than 100 µM. Further, the TGI in [8] is 67.6 µM; in [9] it was greater than 100 µM; in assay [10], greater than 100 µM.
As to `CC(C)=CCC/C(C)=C/CC/C(C)=C/CSc1ccc(Cl)cc1C(=O)O`, the TGI stood at 36.8 µM in [1]; 32.8 µM in assay [2]; 37.4 µM in assay [3]; 38.7 µM in assay [4]; 63.4 µM in assay [5]; 34.7 µM in assay [6]. The TGI is 44.9 µM in assay [7], 30.7 µM in assay [8], 60.3 µM in assay [9] and 38.4 µM in assay [10].
With `CN1CCN(c2c(O)c3c(c(O)c2Cl)C(=O)C=CC3=O)CC1`, the TGI in assay [1] was found to be 4.08 µM; in assay [2] it was 0.576 µM; in [3], 1.38 µM; in assay [4], 4.54 µM; in [5], 1.06 µM; in assay [6], 2.82 µM. For the same compound, the TGI in assay [7] was found to be 1.11 µM; in [8], 1.47 µM; in assay [9] it was 1.2 µM; in assay [10] it was 0.448 µM.
Turning to `COC1=CCC2=C(CCN(C(=O)C3CCC3)C2Cc2ccc(OC)c(O)c2)C1` (stereo not drawn), the TGI in [1] is greater than 100 µM; in assay [2], 50.1 µM; in [3], 43.8 µM; in [4], 84.5 µM; in [5], greater than 100 µM; in [6], greater than 100 µM. Further, the TGI is 73.3 µM in assay [7], 27.4 µM in assay [8], 9.04 µM in assay [9] and greater than 100 µM in [10].
Turning to `COc1cc(C2c3cc4c(cc3OC(N3CCOCC3)C2C)OCO4)cc(OC)c1OC(C)=O` (stereo not drawn), the TGI is 62.7 µM in assay [1]; greater than 100 µM in assay [2]; 57.9 µM in [3]; 81.3 µM in assay [4]; 99.2 µM in [5]; greater than 84.5 µM in assay [6]. Moreover, the TGI was greater than 51 µM in assay [7], 59.4 µM in assay [8], 4.94 µM in assay [9] and greater than 85.7 µM in assay [10].
